The values that follow come from patent publication US20250171451A1, “NOVEL HETEROCYCLIC COMPOUND AND PHARMACEUTICAL COMPOSITION COMPRISING SAME” (Samjin Pharmaceutical Co., Ltd., priority 2022, published 2025).

The subject of test [1] is TEAD response element (TRE) luciferase reporter in MCF-7 cell lines. The experiment in a line: TEAD response element (TRE) reporter assay. To be noted: Homo sapiens, MCF7; 0.2 μM compound, 24 hours, MCF-7 TEAD reporter cells, relative to vehicle (1% DMSO). The class given is cell-based. As to the method:
MCF-7 cell lines injected with TEAD reporter genes expressing firefly luciferase upon activation of TEAD response element (TRE) were obtained from BPS bioscience (#60618). The TEAD reporter genes were injected to stable expression in the MCF-7 cell lines.
TEAD reporter genes expressing firefly luciferase upon activation of TEAD response element (TRE) were injected with TEAD reporter genes to ensure stable expression of the TEAD reporter genes. Here, the TEAD reporter genes expresses firefly luciferase upon activation of TEAD response element (TRE). The cells were cultured in a cell-only culture medium (BPS bioscience) to which 10 μg/mL insulin (Sigma) was added at 37° C. and 5% CO2.
In 24 hours after dispensing said cells into a 96-well plate, each of the compounds of the examples or a vehicle solvent (final 1% DMSO) was treated by being diluted with a serum-free culture medium so that the final concentration became 0.2 μM. In 24 hours after said treatment, a luciferase assay working solution (ONE-Step Luciferase assay reagent; BPS bioscience) containing a luciferase substrate was treated in each well at 100 μL, and then left in a shaker for 15 minutes to be well mixed. Then, a degree of luminescence generated by luciferase expressed according to TEAD activation was measured by a microplate reader (TECAN). A relative activity of luciferase […], and the results are shown in table 8 below.

For test [2], the target named is T1, recombinant GST-TEAD1 proteins (209 to 426 a.a.) (Homo sapiens, UniProt P28347).
T1 construct: recombinant GST-TEAD1 proteins (209 to 426 a.a.)
The experiment in a line: Evaluation of palmitoylation of TEAD protein. The test is classed as biochemical. The note with it: 5 μM compound, 15 minutes preincubation, 3 μM alkyne palmitoyl-CoA 30 minutes, pH 6.4, vs DMSO control. As to the method:
Each compound corresponding to a concentration of 5 μM was added to recombinant GST-TEAD1 proteins (209 to 426 a.a.) and cultured for 15 minutes. For an autopalmitoylation reaction of proteins after culturing, 3 μM alkyne palmitoyl-CoA (Cayman chemical) and 50 mM MES buffer (pH 6.4) were added and cultured for 30 minutes, after which 1% of sodium dodecyl sulfate (SDS) was added to stop the reaction. After that, biotinylation was performed through a CLICK (Click chemistry tools) reaction, and then a protein solution was concentrated to prepare a sample.
Analysis of the sample was performed using SDS-PAGE and streptavidin HRP (Thermo scientific). The resulting values were quantified using an Image J (NIH). For the intensity of the band obtained from Streptavidin blot, a palmitoylation inhibitory activity was analyzed based on the control group (DMSO). The normalization of each sample was performed using an anti-GST (91G1) (cell signaling) antibody.

Molecules are shown by their SMILES.

T1 sequence (P28347 209-426): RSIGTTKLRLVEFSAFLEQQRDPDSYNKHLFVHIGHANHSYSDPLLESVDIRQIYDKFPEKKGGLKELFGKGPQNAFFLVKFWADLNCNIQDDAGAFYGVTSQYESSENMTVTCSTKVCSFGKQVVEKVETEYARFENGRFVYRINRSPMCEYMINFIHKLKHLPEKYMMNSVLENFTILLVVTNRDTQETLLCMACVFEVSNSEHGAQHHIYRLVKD

In general, inhibition refers to the change of the read-out against control, counted positive when it falls. For the molecule `C=CS(=O)(=O)Nc1cnc2ncn(-c3ccc(C4CCCCC4)cc3)c2c1` [Compound 1, N-(1-(4-cyclohexylphenyl)-1H-imidazo[4,5-b]pyridin-6-yl)ethenesulfonamide], the inhibition at 0.2 µM in test [1] was < 30%.
Regarding `C=CC(=O)Nc1cnc2ncn(-c3ccc(C4CCCCC4)cc3)c2c1` [Compound 2, N-(1-(4-cyclohexylphenyl)-1H-imidazo[4,5-b]pyridin-6-yl)acrylamide], the inhibition at 0.2 µM in test [1] is < 30%.
Take `C=CC(=O)Nc1cnc2c(ccn2Cc2ccc(C(F)(F)F)cc2)c1` [Compound 4, N-(1-(4-(trifluoromethyl)benzyl)-1H-pyrrolo[2,3-b]pyridin-5-yl)acrylamide]: the inhibition at 0.2 µM in test [1] lay within 30 to 50%. The inhibition at 5 µM in test [2] was in the range of 40 to 80%.
`C=CC(=O)Nc1ccc2c(cnn2Cc2ccc(C(F)(F)F)cc2)c1` [Compound 6, N-(1-(4-(trifluoromethyl)benzyl)-1H-indazol-5-yl)acrylamide] came in with an inhibition at 0.2 µM in test [1] of 30 to 50%. In test [2], the inhibition at 5 µM was > 80%.
For the molecule `C=CC(=O)Nc1ccc2c(c1)CCN2Cc1ccc(C(F)(F)F)cc1` [Compound 7, N-(1-(4-(trifluoromethyl)benzyl)indolin-5-yl)acrylamide], the inhibition at 0.2 µM in test [1] was > 50%. Besides, in test [2], the inhibition at 5 µM was > 80%.
Molecule `C=CC(=O)Nc1cnc2c(cnn2CC2CCCC2)c1` [Compound 8, N-(1-(cyclopentylmethyl)-1H-pyrazolo[3,4-b]pyridin-5-yl)acrylamide] showed an inhibition at 0.2 µM in test [1] of 30 to 50%. Moreover, the inhibition at 5 µM in test [2] lay in the range of 40 to 80%.
The matching figures for `C=CC(=O)Nc1cnc2c(c1)c(C)cn2CC1CCCC1` [Compound 9, N-(1-(cyclopentylmethyl)-3-methyl-1H-pyrrolo[2,3-b]pyridin-5-yl)acrylamide]: > 50% and > 80%.
The corresponding values for `C=CC(=O)Nc1cnc2c(c1)c(C)cn2CC1CCC(F)(F)CC1` [Compound 10, N-(1-((4,4-difluorocyclohexyl)methyl)-3-methyl-1H-pyrrolo[2,3-b]pyridin-5-yl)acrylamide] are > 50% and > 80%.
The matching figures for `C=CC(=O)Nc1cnc2c(cnn2CC2CCC(F)(F)CC2)c1` [Compound 11, N-(1-((4,4-difluorocyclohexyl)methyl)-1H-pyrazolo[3,4-b]pyridin-5-yl)acrylamide]: 30 to 50% and 40 to 80%.
Regarding `C=CC(=O)Nc1cnc2c(cnn2CCCOC(F)(F)F)c1` [Compound 12, N-(1-(3-(trifluoromethoxy)propyl)-1H-pyrazolo[3,4-b]pyridin-5-yl)acrylamide], the inhibition at 0.2 µM in test [1] was < 30%. Besides, the inhibition at 5 µM in test [2] is < 40%.
The matching figures for `C=CC(=O)Nc1cnc2c(c1)c(C)nn2Cc1ccc(C(F)(F)F)cc1` [Compound 13, N-(3-methyl-1-(4-(trifluoromethyl)benzyl)-1H-pyrazolo[3,4-b]pyridin-5-yl)acrylamide]: 30 to 50% and > 80%.
Turning to `C=CC(=O)Nc1cnc2c(c1)c(C)nn2CC1CCC(F)(F)CC1` [Compound 14, N-(1-((4,4-difluorocyclohexyl)methyl)-3-methyl-1H-pyrazolo[3,4-b]pyridin-5-yl)acrylamide], the inhibition at 0.2 µM in test [1] was > 50%. In addition, the inhibition at 5 µM in test [2] fell in the range of 40 to 80%.
The corresponding values for `C=CC(=O)Nc1cnc2c(ccn2Cc2ccc(C(F)(F)F)cc2)n1` [Compound 15, N-(5-(4-(trifluoromethyl)benzyl)-5H-pyrrolo[2,3-b]pyrazin-2-yl)acrylamide] are > 50% and > 80%.
In the case of `C=CC(=O)Nc1cnc2c(cnn2Cc2ccc(C(F)(F)F)cc2)n1` [Compound 16, N-(1-(4-(trifluoromethyl)benzyl)-1H-pyrazolo[3,4-b]pyrazin-5-yl)acrylamide], the inhibition at 0.2 µM in test [1] is > 50%. In addition, the inhibition at 5 µM in test [2] was < 40%.
The matching figures for `C=CC(=O)Nc1ccc2cnn(Cc3ccc(C(F)(F)F)cc3)c2c1` [Compound 17, N-(1-(4-(trifluoromethyl)benzyl)-1H-indazol-6-yl)acrylamide]: 30 to 50% and 40 to 80%.
Molecule `C=CC(=O)Nc1cnc2c(ccn2Cc2ccc(C(F)(F)F)cc2)c1OC` [Compound 18, N-(4-methoxy-1-(4-(trifluoromethyl)benzyl)-1H-pyrrolo[2,3-b]pyridin-5-yl)acrylamide] had an inhibition at 0.2 µM in test [1] of 30 to 50%. Moreover, the inhibition at 5 µM in test [2] was > 80%.
The matching figures for `C=CC(=O)Nc1ncc2cnn(Cc3ccc(C(F)(F)F)cc3)c2n1` [Compound 19, N-(1-(4-(trifluoromethyl)benzyl)-1H-pyrazolo[3,4-d]pyrimidin-6-yl)acrylamide]: < 30% and < 40%.
The corresponding values for `C=CC(=O)Nc1ncc2c(C)nn(Cc3ccc(C(F)(F)F)cc3)c2n1` [Compound 20, N-(3-methyl-1-(4-(trifluoromethyl)benzyl)-1H-pyrazolo[3,4-d]pyrimidin-6-yl)acrylamide] are < 30% and < 40%.
The corresponding values for `CC=CC(=O)Nc1cnc2c(c1)c(C)cn2Cc1ccc(C(F)(F)F)cc1` [Compound 21, N-(3-methyl-1-(4-(trifluoromethyl)benzyl)-1H-pyrrolo[2,3-b]pyridin-5-yl)but-2-enamide] are < 30% and < 40%.
As to `C=CC(=O)Nc1ncc2c(cnn2Cc2ccc(C(F)(F)F)cc2)n1` [Compound 22, N-(1-(4-(trifluoromethyl)benzyl)-1H-pyrazolo[4,3-d]pyrimidin-5-yl)acrylamide], in test [1], the inhibition at 0.2 µM is < 30%. In addition, the inhibition at 5 µM in test [2] was < 40%.
The corresponding values for `CC=CC(=O)Nc1cnc2c(c1)c(C)cn2CCCC` [Compound 23, N-(1-butyl-3-methyl-1H-pyrrolo[2,3-b]pyridin-5-yl)but-2-enamide] are < 30% and < 40%.
The corresponding values for `C=CC(=O)Nc1cnc2c(c1)c(C)cn2C(=O)c1ccc(C(F)(F)F)cc1` [Compound 24, N-(3-methyl-1-(4-(trifluoromethyl)benzoyl)-1H-pyrrolo[2,3-b]pyridin-5-yl)acrylamide] are < 30% and > 80%.
For `Cc1cn(Cc2ccc(C(F)(F)F)cc2)c2ncc(NC(=O)C(C)C)cc12` [Compound 25, N-(3-methyl-1-(4-(trifluoromethyl)benzyl)-1H-pyrrolo[2,3-b]pyridin-5-yl)isobutyramide], the inhibition at 0.2 µM in test [1] was < 30%. The inhibition at 5 µM in test [2] lay in the range of 40 to 80%.
The matching figures for `C=CC(=O)Nc1cnc2c(c1)c(C)cn2CCC(C)C` [Compound 26, N-(1-isopentyl-3-methyl-1H-pyrrolo[2,3-b]pyridin-5-yl)acrylamide]: 30 to 50% and > 80%.
Regarding `C=CC(=O)Nc1cnc2c(n1)c(C)cn2Cc1ccc(C(F)(F)F)cc1` [Compound 28, N-(7-methyl-5-(4-(trifluoromethyl)benzyl)-5H-pyrrolo[2,3-b]pyrazin-2-yl)acrylamide], the inhibition at 0.2 µM in test [1] was > 50%. In test [2], the inhibition at 5 µM is > 80%.
As for `C=CC(=O)Nc1cc2ccn(Cc3ccc(C(F)(F)F)cc3)c2cn1` [Compound 29, N-(1-(4-(trifluoromethyl)benzyl)-1H-pyrrolo[2,3-c]pyridin-5-yl)acrylamide], the inhibition at 0.2 µM in test [1] was < 30%. For the same molecule, in test [2], the inhibition at 5 µM was in the range of 40 to 80%.
The matching figures for `C=CC(=O)Nc1cnc2ncn(Cc3ccc(C(F)(F)F)cc3)c2c1` [Compound 30, N-(1-(4-(trifluoromethyl)benzyl)-1H-imidazo[4,5-b]pyridin-6-yl)acrylamide]: < 30% and 40 to 80%.
Regarding `C=CC(=O)Nc1cnc2c(n1)c(C)nn2Cc1ccc(C(F)(F)F)cc1` [Compound 31, N-(3-methyl-1-(4-(trifluoromethyl)benzyl)-1H-pyrazolo[3,4-b]pyrazin-5-yl)acrylamide], the inhibition at 0.2 µM in test [1] was > 50%. Moreover, in test [2], the inhibition at 5 µM fell in the range of 40 to 80%.
Regarding `C=CC(=O)Nc1ccc2c(C)nn(Cc3ccc(C(F)(F)F)cc3)c2c1` [Compound 32, N-(3-methyl-1-(4-(trifluoromethyl)benzyl)-1H-indazol-6-yl)acrylamide], the inhibition at 0.2 µM in test [1] was > 50%. The inhibition at 5 µM in test [2] is 40 to 80%.
